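Five compound concentrations were applied to cells in 96-well plates for 48 hours; endpoints were derived by simple linear interpolation of the resulting dose-response curve. Definition used: TGI = concentration required for complete inhibition of growth.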
Experiments:
Assay in all cases: NCI anticancer screen, dose series, 48 h
CAKI-1 renal = system: CAKI-1 renal
DU-145 prostate = system: DU-145 prostate
HCT-15 colon = system: HCT-15 colon
MCF7 breast = system: MCF7 breast
NCI-H226 lung = system: NCI-H226 lung
NCI-H23 lung = system: NCI-H23 lung
NCI-H460 lung = system: NCI-H460 lung
RXF 393 renal = system: RXF 393 renal
SK-MEL-2 melanoma = system: SK-MEL-2 melanoma
SNB-75 CNS = system: SNB-75 CNS

SMILES	TGI (CAKI-1 renal) [µM]	TGI (DU-145 prostate) [µM]	TGI (HCT-15 colon) [µM]	TGI (MCF7 breast) [µM]	TGI (NCI-H226 lung) [µM]	TGI (NCI-H23 lung) [µM]	TGI (NCI-H460 lung) [µM]	TGI (RXF 393 renal) [µM]	TGI (SK-MEL-2 melanoma) [µM]	TGI (SNB-75 CNS) [µM]
Clc1ccc(-c2nnc(-c3c(Cl)c(Cl)c(Cl)c(Cl)c3-c3nc4ccccc4[nH]3)o2)cc1	> 100	> 100	> 100	> 100	> 100	> 100	> 100	> 100	> 100	> 100
COc1cc2c(cc1OC)-c1cc3ccc(OC)c(OC)c3c[n+]1CC2	> 100	> 100	> 100	> 100	> 100		> 100	> 100	> 100	> 100
COc1ccc2c(c1)CC[C@@H]1[C@@H]2CC[C@]2(C)C(=O)/C(=C/c3ccc(O)c(OC)c3)C[C@@H]12	> 100	> 100	72.6	> 100	> 100	> 100	> 100	> 100	> 100	
Cn1c(=O)c2c(nc(NCCNc3nc4c(c(=O)n(C)c(=O)n4C)n3C)n2C)n(C)c1=O	> 100	> 100	> 100		> 100	> 100	> 100	> 100	> 100	> 100
CCOC(=O)c1c(CN2CCCC2)n(-c2ccccc2)c2cc(Br)c(OC)cc12	> 100	69.2	34.1	23.4	35.6	63.3	35.3	17.5	38.3	62.5
N#C[S-].[Ce+3].c1cnc2c(c1)ccc1cccnc12.c1cnc2c(c1)ccc1cccnc12.c1cnc2c(c1)ccc1cccnc12	14.3				8.24	75.6				22.2
NC(CC(=O)O)(Cc1ccccc1)C(=O)O (stereo unspecified)	> 100	> 100	> 100	> 100	> 100	> 100	> 100	> 100	> 100	> 100
CC(=O)C1=C(O)CCC1=O	> 100	> 100		> 100	> 100	> 100	> 100	> 100	> 100	> 100
C[C@]12CCC(=O)C=C1CC[C@@H]1[C@@H]2[C@@H](O)C[C@@]2(C)[C@H]1CC[C@]2(O)C(=O)COC(=O)C1CCCC1	> 100	> 100	> 100	> 100	> 100	> 100	> 100	> 100	> 100	> 100
Cc1ccc(SSCCCCCS(=O)O)cc1						88.9	> 100	43.3	59.2	63.1
O=c1/c(=C/c2ccc([N+](=O)[O-])o2)sc2n1[C@@H](c1ccc3c(c1)OCO3)C=C(c1cc(F)c(Cl)cc1Cl)N=2	33.6	79.8	64.9	32.4	> 100	46.8	49.8	43.2	83	37.4
O=C(NNC(=O)c1nsc2ccccc12)c1ccc(Cl)cc1			36.4			59.9	> 100	30.3	45.7	15.6

Reference: PubChem BioAssay (NCI)
